# Results reported in ChEMBL document CHEMBL6074624, “FDA-approved small molecule kinase inhibitors for cancer treatment (2001-2015): Medical indication, structural optimization, and binding mode Part I” (Bioorg Med Chem, 2024).
# Key:
# [1] = Inhibition of Bcr-Abl T315Ialpha mutant (unknown origin); parameters: species or system Homo sapiens
# [2] = target: Hepatocyte growth factor receptor (Homo sapiens, UniProt P08581); experiment: Inhibition of c-Met (unknown origin)
# K562 = experiment: Antiproliferative activity against human K562 cells assessed as reduction in cell growth; format: functional, cell-based
# SK-MEL-28 [3] = experiment: Antiproliferative activity against human SK-MEL-28 cells assessed as reduction in cell growth after 3 days by MTT assay; format: functional, cell-based; conditions: SK-MEL-28, 72 h
# SK-MEL-28 [4] = experiment: Cytotoxicity against human SK-MEL-28 cells assessed as reduction in cell viability after 24 hrs by MTT assay; format: functional, cell-based; conditions: SK-MEL-28, 24 h
# [5] = Intrinsic clearance in rat; format: ADME
# HT-29 [6] = experiment: Antitumor activity against human HT-29 cells xenografted in athymic nude mouse assessed as tumor growth inhibition at 50 mg/kg, po administered once daily for 21 days relative to control; format: functional; conditions: HT-29, 504 h, time 21 day, read-out: TGI
# HT-29 [7] = experiment: Antitumor activity against human HT-29 cells xenografted in athymic nude mouse assessed as tumor growth inhibition at 25 mg/kg, ip administered once daily for 21 days relative to control; format: functional; conditions: HT-29, 504 h, time 21 day, read-out: TGI
# Calu-6 [8] = experiment: Antitumor activity against human Calu-6 cells xenografted in athymic nude mouse assessed as tumor growth inhibition at 100 mg/kg, po administered once daily for 21 days relative to control; format: functional; parameters: scale not given: the % may be the effect or the level left; conditions: time 21 day
# Calu-6 [9] = experiment: Antitumor activity against human Calu-6 cells xenografted in athymic nude mouse assessed as tumor growth inhibition at 50 mg/kg, po administered once daily for 21 days relative to control; format: functional; conditions: Calu-6, 504 h, time 21 day, read-out: TGI
# Calu-6 [10] = experiment: Antitumor activity against human Calu-6 cells xenografted in athymic nude mouse assessed as tumor growth inhibition at 25 mg/kg, po administered once daily for 21 days relative to control; format: functional; conditions: Calu-6, 504 h, time 21 day, read-out: TGI
# [11] = Oral bioavailability in rat at 5 mg/kg measured for 24 hrs by LC-MS/MS analysis; format: ADME, organism-based; conditions: in vivo
# [12] = Solubility in PBS at pH 7.4 incubated for 24 hrs by HPLC analysis; format: physicochemical
# [13] = Half life in rat at 5 mg/kg, po; format: ADME, organism-based; conditions: in vivo
# Calu-6 [14] = experiment: Antitumor activity against human Calu-6 cells xenografted in athymic nude mouse assessed as tumor growth inhibition at 12.5 mg/kg, po administered once daily for 21 days relative to control; format: functional; conditions: Calu-6, 504 h, time 21 day, read-out: TGI
# [15] = Antitumor activity against human MDA-MB-231T cells xenografted in mouse assessed as tumor growth inhibition at 3 mg/kg, po relative to control; format: functional; conditions: read-out: TGI
# [16] = Antiproliferative activity against human MDA-MB-231T cells assessed as reduction in cell viability; format: functional, cell-based
# [17] = Oral bioavailability in human at 5 mg/kg; format: ADME, organism-based; conditions: in vivo
# [18] = target: Dual specificity mitogen-activated protein kinase kinase 1 (Homo sapiens, UniProt Q02750); experiment: Inhibition of MEK1 (unknown origin) phosphorylation by [gamma-33P]-ATP assay
# [19] = Antitumor activity against human MDA-MB-231T cells xenografted in mouse assessed as tumor growth inhibition at 1 mg/kg, po relative to control; format: functional; conditions: read-out: TGI
# KARPAS-299 [20] = experiment: Antitumor activity against ALK positive human KARPAS-299 cells xenografted in RNU nude rat assessed as tumor growth inhibition at 12.5 mg/kg, po administered for 2 weeks relative to control; format: functional; conditions: KARPAS-299, 336 h, read-out: TGI
# NCI-H2228 [21] = experiment: Antitumor activity against ALK positive human NCI-H2228 cells xenografted in RNU nude rat assessed as tumor growth inhibition at 5 mg/kg, po administered for 2 weeks relative to control; format: functional; conditions: NCI-H2228, 336 h, read-out: TGI
# KARPAS-299 [22] = experiment: Antitumor activity against ALK positive human KARPAS-299 cells xenografted in RNU nude rat assessed as tumor growth inhibition at 25 mg/kg, po administered for 2 weeks relative to control; format: functional; conditions: KARPAS-299, 336 h, read-out: TGI
# KARPAS-299 [23] = experiment: Antitumor activity against ALK positive human KARPAS-299 cells xenografted in RNU nude rat assessed as tumor growth inhibition at 6.25 mg/kg, po administered for 2 weeks relative to control; format: functional; conditions: KARPAS-299, 336 h, read-out: TGI
# NCI-H2228 [24] = experiment: Antitumor activity against ALK positive human NCI-H2228 cells xenografted in RNU nude rat assessed as tumor growth inhibition at 10 mg/kg, po administered for 2 weeks relative to control; format: functional; conditions: NCI-H2228, 336 h, read-out: TGI
# [25] = Half life in dog at 5 mg/kg, iv; format: ADME, organism-based, Canis lupus familiaris; conditions: in vivo
# [26] = Oral bioavailability in Sprague-Dawley rat at 5 mg/kg; format: ADME, organism-based; conditions: in vivo
# [27] = Half life in Sprague-Dawley rat at 5 mg/kg, iv by LC-MS analysis; format: ADME, organism-based; conditions: in vivo
# [28] = Oral bioavailability in dog at 5 mg/kg; format: ADME, organism-based, Canis lupus familiaris; conditions: in vivo
# [29] = target: Vascular endothelial growth factor receptor 2 (Homo sapiens, UniProt P35968); experiment: Inhibition of VEGFR2 (unknown origin) phosphorylation in HUVEC cells; format: cell-based
# Caco-2 = experiment: Cytotoxicity against human Caco-2 cells assessed as reduction in cell viability; format: functional, cell-based
# Chain of Hepatocyte growth factor receptor (P08581 whole entry): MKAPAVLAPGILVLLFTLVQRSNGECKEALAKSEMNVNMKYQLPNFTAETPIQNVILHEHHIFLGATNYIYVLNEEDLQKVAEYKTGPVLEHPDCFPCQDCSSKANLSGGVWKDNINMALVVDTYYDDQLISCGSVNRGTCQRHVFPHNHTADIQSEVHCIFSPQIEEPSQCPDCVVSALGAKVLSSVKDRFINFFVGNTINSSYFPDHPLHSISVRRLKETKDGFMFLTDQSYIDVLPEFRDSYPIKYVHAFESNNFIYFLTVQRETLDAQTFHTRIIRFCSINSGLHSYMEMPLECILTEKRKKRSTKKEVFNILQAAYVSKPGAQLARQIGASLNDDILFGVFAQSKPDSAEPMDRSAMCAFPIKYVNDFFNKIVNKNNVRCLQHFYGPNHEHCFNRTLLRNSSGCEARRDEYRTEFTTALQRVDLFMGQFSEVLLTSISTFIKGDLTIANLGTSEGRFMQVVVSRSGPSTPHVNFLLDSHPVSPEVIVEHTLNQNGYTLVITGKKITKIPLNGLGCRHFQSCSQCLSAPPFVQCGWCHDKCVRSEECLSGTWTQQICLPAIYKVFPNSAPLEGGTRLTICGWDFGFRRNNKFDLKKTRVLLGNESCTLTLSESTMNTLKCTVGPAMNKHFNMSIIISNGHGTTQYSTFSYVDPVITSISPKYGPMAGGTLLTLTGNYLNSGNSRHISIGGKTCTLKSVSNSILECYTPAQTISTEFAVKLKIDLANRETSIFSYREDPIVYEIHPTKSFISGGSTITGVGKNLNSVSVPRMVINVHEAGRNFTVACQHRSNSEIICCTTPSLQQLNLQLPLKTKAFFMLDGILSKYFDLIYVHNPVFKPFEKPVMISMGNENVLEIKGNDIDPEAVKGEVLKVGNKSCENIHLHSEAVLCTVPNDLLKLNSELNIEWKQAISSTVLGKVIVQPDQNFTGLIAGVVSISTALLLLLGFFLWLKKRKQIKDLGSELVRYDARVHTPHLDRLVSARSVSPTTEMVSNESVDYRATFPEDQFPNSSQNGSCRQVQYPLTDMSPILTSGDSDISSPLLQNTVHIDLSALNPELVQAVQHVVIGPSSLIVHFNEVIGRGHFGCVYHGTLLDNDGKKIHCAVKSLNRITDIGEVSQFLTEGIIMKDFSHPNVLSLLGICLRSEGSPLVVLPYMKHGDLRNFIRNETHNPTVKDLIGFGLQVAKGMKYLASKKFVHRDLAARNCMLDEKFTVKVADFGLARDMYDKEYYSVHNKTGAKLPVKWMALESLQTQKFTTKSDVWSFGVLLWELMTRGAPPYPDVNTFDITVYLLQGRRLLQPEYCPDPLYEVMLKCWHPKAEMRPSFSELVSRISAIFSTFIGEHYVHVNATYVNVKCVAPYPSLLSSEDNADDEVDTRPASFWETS
# Chain of Dual specificity mitogen-activated protein kinase kinase 1 (Q02750 whole entry): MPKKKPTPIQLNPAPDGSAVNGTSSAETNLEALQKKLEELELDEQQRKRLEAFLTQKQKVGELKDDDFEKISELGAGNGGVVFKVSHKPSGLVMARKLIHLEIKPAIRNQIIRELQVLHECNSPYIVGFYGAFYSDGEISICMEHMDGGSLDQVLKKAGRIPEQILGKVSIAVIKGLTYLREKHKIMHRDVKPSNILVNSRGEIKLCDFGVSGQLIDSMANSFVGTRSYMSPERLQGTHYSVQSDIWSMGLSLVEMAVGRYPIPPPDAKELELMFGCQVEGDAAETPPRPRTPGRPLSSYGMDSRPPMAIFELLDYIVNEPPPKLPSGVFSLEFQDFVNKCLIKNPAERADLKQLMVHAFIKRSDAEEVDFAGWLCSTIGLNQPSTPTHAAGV
# Chain of Vascular endothelial growth factor receptor 2 (P35968 whole entry): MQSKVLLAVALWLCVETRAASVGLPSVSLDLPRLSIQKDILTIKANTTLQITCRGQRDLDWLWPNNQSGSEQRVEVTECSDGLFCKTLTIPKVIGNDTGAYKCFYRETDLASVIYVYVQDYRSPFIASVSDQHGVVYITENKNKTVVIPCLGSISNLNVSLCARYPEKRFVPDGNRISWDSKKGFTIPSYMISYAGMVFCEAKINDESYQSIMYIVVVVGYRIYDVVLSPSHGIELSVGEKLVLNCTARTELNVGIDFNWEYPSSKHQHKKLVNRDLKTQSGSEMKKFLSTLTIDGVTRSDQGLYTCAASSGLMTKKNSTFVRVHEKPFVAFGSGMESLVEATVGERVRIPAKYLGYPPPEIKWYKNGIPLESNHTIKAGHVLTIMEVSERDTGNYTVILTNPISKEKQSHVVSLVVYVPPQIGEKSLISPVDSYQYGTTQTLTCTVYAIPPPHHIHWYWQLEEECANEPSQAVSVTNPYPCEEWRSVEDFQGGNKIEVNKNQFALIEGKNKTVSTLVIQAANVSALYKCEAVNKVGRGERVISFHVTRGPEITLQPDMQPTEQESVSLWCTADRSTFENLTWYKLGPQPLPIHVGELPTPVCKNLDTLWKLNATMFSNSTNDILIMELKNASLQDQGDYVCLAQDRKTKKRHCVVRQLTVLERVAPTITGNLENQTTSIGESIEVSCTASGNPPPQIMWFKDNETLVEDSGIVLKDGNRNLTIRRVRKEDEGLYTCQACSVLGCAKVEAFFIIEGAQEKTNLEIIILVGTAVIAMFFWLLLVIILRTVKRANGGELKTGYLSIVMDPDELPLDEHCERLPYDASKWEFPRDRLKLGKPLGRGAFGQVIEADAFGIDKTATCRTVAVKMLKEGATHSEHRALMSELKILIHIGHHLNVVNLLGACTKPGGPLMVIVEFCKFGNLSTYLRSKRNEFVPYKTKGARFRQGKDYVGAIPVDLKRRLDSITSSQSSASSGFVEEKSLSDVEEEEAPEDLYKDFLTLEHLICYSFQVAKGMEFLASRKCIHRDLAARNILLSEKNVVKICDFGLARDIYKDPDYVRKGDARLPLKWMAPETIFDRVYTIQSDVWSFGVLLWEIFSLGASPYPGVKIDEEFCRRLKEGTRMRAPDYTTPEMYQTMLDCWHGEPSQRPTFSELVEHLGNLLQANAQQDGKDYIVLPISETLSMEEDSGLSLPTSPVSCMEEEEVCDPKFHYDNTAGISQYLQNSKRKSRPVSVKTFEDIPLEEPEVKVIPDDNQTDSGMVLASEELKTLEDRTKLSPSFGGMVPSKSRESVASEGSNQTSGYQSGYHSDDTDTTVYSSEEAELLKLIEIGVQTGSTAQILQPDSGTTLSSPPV
smiles,measurement,setting,value
Cc1ccc(NC(=O)c2cc(C(C)(C)C)on2)cc1C#Cn1cnc2c(NC3CC3)ncnc21,IC50,[1],359 nM
COc1cc2nccc(Nc3ccc(NC(=S)NC(=O)Cc4ccccc4)cc3F)c2cc1OC,IC50,[2],121 nM
same,IC50,K562,20 nM
CC(=O)N1CCN(c2ccc(Nc3nccc(-c4sc(C(C)C)nc4-c4cccc(NS(=O)(=O)c5ccccc5)c4)n3)cn2)CC1,EC50,SK-MEL-28 [3],24 nM
CC(C)(C)c1nc(-c2cccc(NS(=O)(=O)c3c(F)cccc3F)c2F)c(-c2ccnc(N)n2)s1 [DABRAFENIB],IC50,SK-MEL-28 [4],3 nM
same,clearance,[5],19 mL/min/kg
COc1cc(Nc2c(C#N)cnc3cc(OCCCN4CCN(C)CC4)c(OC)cc23)c(Cl)cc1Cl [BOSUTINIB],inhibition in vivo at 50 mg/kg,HT-29 [6],35%
same,inhibition in vivo at 25 mg/kg,HT-29 [7],44%
COc1cc2/c(=N/c3ccc(Br)cc3F)nc[nH]c2cc1OCC1CCN(C)CC1 [VANDETANIB],Activity,Calu-6 [8],79%
same,inhibition in vivo at 50 mg/kg,Calu-6 [9],67%
same,inhibition in vivo at 25 mg/kg,Calu-6 [10],51%
same,bioavailability,[11],> 50%
same,solubility at 24 h,[12],330 µM
same,half-life,[13],15 h
same,inhibition in vivo at 12.5 mg/kg,Calu-6 [14],36%
O=C(c1ccc(F)c(F)c1Nc1ccc(I)cc1F)N1CC(O)([C@@H]2CCCCN2)C1 [COBIMETINIB],inhibition in vivo at 3 mg/kg,[15],93%
same,IC50,[16],0.2 nM
same,bioavailability,[17],77%
same,IC50,[18],6.6 nM
same,inhibition in vivo at 1 mg/kg,[19],60%
Cc1cc(Nc2ncc(Cl)c(Nc3ccccc3S(=O)(=O)C(C)C)n2)c(OC(C)C)cc1C1CCNCC1 [CERITINIB],inhibition in vivo at 12.5 mg/kg,KARPAS-299 [20],30%
same,inhibition in vivo at 5 mg/kg,NCI-H2228 [21],67%
same,inhibition in vivo at 25 mg/kg,KARPAS-299 [22],33%
same,inhibition in vivo at 6.25 mg/kg,KARPAS-299 [23],74%
same,inhibition in vivo at 10 mg/kg,NCI-H2228 [24],2%
COc1cc2c(Nc3ccc(Br)cc3F)ncnc2cc1OCCn1ccnn1 [ZD-4190 FREE BASE],half-life,[25],1.1 h
same,Activity,Calu-6 [8],75%
same,bioavailability,[26],> 80%
same,half-life,[27],1.3 h
same,bioavailability,[28],< 5%
same,IC50,[29],50 nM
O=C(NOCC1CC1)c1ccc(F)c(F)c1Nc1ccc(I)cc1Cl [CI-1040],IC50,Caco-2,35 nM
